Assay results taken from article PMC11783601, “Analogue-Sensitive Inhibition of Histone Demethylases Uncovers Member-Specific Function in Ribosomal Protein Synthesis” (Journal of the American Chemical Society, 2025).
Where “and” joins values, the source holds several entries; their conditions need not be identical. Equal values may be shown once.

Target: T1, KDM4A F185A (asKDM4A) in HEK293T cells (Homo sapiens, UniProt O75164, F185A)
T1 construct: we generated the F185A mutation in full-length KDM4A carrying all of the functional domains; host or cells: HEK293T
T1 sequence (O75164 1-1064 F185A): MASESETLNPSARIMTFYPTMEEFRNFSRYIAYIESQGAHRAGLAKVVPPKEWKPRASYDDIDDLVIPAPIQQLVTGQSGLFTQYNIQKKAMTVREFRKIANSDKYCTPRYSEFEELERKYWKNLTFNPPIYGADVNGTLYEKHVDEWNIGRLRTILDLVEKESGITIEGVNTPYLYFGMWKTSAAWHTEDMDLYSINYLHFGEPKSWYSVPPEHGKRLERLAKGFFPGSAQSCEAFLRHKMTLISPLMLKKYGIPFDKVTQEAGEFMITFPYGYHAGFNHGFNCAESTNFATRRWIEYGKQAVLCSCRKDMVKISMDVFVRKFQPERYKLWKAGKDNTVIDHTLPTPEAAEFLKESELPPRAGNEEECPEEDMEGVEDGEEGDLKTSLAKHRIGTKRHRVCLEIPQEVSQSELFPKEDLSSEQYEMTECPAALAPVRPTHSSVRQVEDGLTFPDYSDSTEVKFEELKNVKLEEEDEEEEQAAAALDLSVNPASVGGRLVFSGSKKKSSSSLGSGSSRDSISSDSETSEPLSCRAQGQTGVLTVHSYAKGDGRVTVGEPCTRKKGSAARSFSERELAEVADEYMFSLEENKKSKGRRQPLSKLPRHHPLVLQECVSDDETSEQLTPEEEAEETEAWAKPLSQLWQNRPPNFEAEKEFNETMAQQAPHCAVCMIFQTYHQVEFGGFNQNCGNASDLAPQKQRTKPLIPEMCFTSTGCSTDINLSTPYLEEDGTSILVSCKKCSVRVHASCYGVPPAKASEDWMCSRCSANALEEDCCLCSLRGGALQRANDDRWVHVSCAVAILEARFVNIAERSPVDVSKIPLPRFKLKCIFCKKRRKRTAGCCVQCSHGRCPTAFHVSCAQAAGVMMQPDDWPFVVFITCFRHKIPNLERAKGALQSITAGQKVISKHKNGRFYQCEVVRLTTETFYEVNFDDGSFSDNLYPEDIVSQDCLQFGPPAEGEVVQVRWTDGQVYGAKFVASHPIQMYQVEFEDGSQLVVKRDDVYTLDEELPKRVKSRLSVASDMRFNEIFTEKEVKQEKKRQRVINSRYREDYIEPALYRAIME
Assay: Histone extraction, digestion and tandem mass spectrometry (relative abundance of histone modifications)
Assay type: cell-based
Experimental: HEK293T cells were transiently transfected with asKDM4A and treated with varying concentrations of 6A or 6B. […] To further confirm the activity of the enzyme–inhibitor pair, we performed tandem mass spectrometry of tryptic histones isolated from HEK293T cells expressing asKDM4A in the presence or absence of 100 μM 6A. […]
22. Histone extraction, digestion and tandem mass spectrometry
HEK 293-T cells (ATCC CRL-1573) were plated into 6-well plates (Corning) in DMEM (Corning) supplemented with 10% FBS (Corning) and 1X Antibiotic/Antimycin
(Penicillin/Streptomycin/Fungiozone) (Cytiva HyClone) in an incubator held at 37 °C with 5%
CO2. At 75% confluency, cells were transfected with 2.5 µg KDM4A F185A or Empty Vector with 5µg Thermo Turbofect (FERR0531). After 4 hours, the media was washed and 200 µM of 6A or equivalent volume of DMSO was added and left to incubate at 37 °C for 24 hours. Cells were then washed with 1X PBS (Corning) followed by trypsinization (Gibco TrypLE™ Express Enzyme). Collected cells were centrifuged at 3000xg for 3 minutes, followed by washing with 1X PBS and centrifuged for an additional 3000xg for 3 minutes. Histone proteins were extracted from the pellet as described by25 to ensure good-quality identification and quantification of single histone marks. Briefly, cell pellets were dissolved in 100 µL of cold 0.2 M H2SO4 and incubated for 2 hours rotating in a cold room (4 °C). Aliquots were then centrifuged at 3400xg for 5 minutes […]
at 4 °C and the supernatant was added to a fresh tube. 100% cold TCA was then added to a final volume of 33% volume/volume TCA/supernatant and left to incubate for 1 hour in a cold room (4 °C). Samples were then centrifuged at 3400xg for 5 min at 4 °C and the supernatant was discarded. The precipitate was then washed with cold acetone/0.1% HCl and centrifuged at 3400xg for 5 minutes at 4 °C. The supernatant was discarded, and the precipitate was washed with cold acetone and centrifuged at 3400xg for 5 minutes at 4 °C. The supernatant was discarded, and the pellet was dried using a vacuum centrifuge.
The pellet was dissolved in 50 mM ammonium bicarbonate, pH 8.0, and histones were subjected to derivatization using 5 µL of propionic anhydride and 14 µL of ammonium hydroxide (all Sigma Aldrich) to balance the pH at 8.0. The mixture was incubated for 15 min and the procedure was repeated. Histones were then digested with 1 µg of sequencing grade trypsin (Promega) diluted in 50mM ammonium bicarbonate (1:20, enzyme:sample) overnight at room temperature.
Derivatization reaction was repeated to derivatize peptide N-termini. The samples were dried in a […]
Sample desalting: Prior to mass spectrometry analysis, samples were desalted using a 96-well plate filter (Orochem) packed with 1 mg of Oasis HLB C-18 resin (Waters). Briefly, the samples were resuspended in 100 µl of 0.1% TFA and loaded onto the HLB resin, which was previously equilibrated using 100 µl of the same buffer. After washing with 100 µl of 0.1% TFA, the samples were eluted with a buffer containing 70 µl of 60% acetonitrile and 0.1% TFA and then dried in a […]
LC-MS/MS Acquisition and Analysis: Samples were resuspended in 10 µl of 0.1% TFA and loaded onto a Dionex RSLC […] (Thermo Scientific), coupled online with an Orbitrap Fusion Lumos (Thermo Scientific). Chromatographic separation was performed with a two-column system, consisting of a C-18 trap cartridge (300 µm ID, 5 mm length) and a picofrit analytical column (75 µm ID, 25 cm length) packed in-house with reversed-phase Repro-Sil Pur C18-AQ 3 µm resin. Peptides were separated using a 30 min gradient from 1-30% buffer B (buffer A: 0.1% formic acid, buffer B: 80% acetonitrile + 0.1% formic acid) at a flow rate of 300 nl/min.
The mass spectrometer was set to acquire spectra in a data-independent acquisition (DIA) mode.

[1] = 6A-treated samples, replicates _1 and _2
[2] = H1 variant peptide, samples 6A_1, 6A_2
[3] = HEK293T cells expressing asKDM4A, 100 μM 6A, LC-MS/MS, n = 2
[4] = HEK293T cells, KDM4A F185A + 6A, replicates 6A_1 and 6A_2

CCCCCCCCOC(=O)C(=O)NC(CC(C)C)C(=O)O [6A, L-Leu octyl-ester NOG]
Single marks H3K4ac [1]: 1e-6 and 0.002004 | Single marks H3K4me1 [1]: 0.1039 and 0.09374 | Single marks H3K4me2 [1]: 0.002434 and 0.008819 | Single marks H3K4me3 [1]: 9e-6 and 0.003387 | Single marks H3K9ac [1]: 0.003245 and 0.006938 | Single marks H3K9me1 [1]: 0.2368 and 0.08817 | Single marks H3K9me2 [1]: 0.4213 and 0.4856 | Single marks H3K9me3 [1]: 0.1855 | Single marks H3K14ac [1]: 0.4176 and 0.5798 | Single marks H3K18ac [1]: 0.008957 and 0.006562 | Single marks H3K18me1 [1]: 0 and 1.2e-5 | Single marks H3K23ac [1]: 0.5125 and 0.4435 | Single marks H3K23me1 [1]: 0 and 5e-6 | Single marks H3K56ac [1]: 0 | Single marks H3K56me1 [1]: 0 and 0.9736 | Single marks H3K56me2 [1]: 0 | Single marks H3K56me3 [1]: 0 | Single marks H3K79ac [1]: 0 | Single marks H3K79me1 [1]: 0.3484 and 0.03322 | Single marks H3K79me2 [1]: 0.33 and 0.01715 | Single marks H3K79me3 [1]: 0.04582 and 0 | Single marks H3K122ac [1]: 0.5896 and 0 | Single marks H3S10ph [1]: 0.08584 and 0.005059 | Single marks H4K5ac [1]: 0.04104 and 0.1648 | Single marks H4K8ac [1]: 0.05131 and 0.1596 | Single marks H4K12ac [1]: 0.09119 and 0.2668 | Single marks H4K16ac [1]: 0.3167 and 0.492 | Single marks H4K20ac [1]: 0.00298 and 0.01255 | Single marks H4K20me1 [1]: 0.4844 and 0.3612 | Single marks H4K20me2 [1]: 0.1012 and 0.2416 | Single marks H4K20me3 [1]: 0.03481 and 0.03641 | Single marks H31K27ac [1]: 0.000296 and 0 | Single marks H31K27me1 [1]: 0.18 and 0.1869 | Single marks H31K27me2 [1]: 0.4707 and 0.5161 | Single marks H31K27me3 [1]: 0.189 and 0.1409 | Single marks H31K36me1 [1]: 0.204 and 0.1649 | Single marks H31K36me2 [1]: 0.3714 and 0.4932 | Single marks H31K36me3 [1]: 0.07097 and 0.06279 | Single marks H33K27ac [1]: 6.9e-5 and 0 | Single marks H33K27me1 [1]: 0.2147 and 0.2058 | Single marks H33K27me2 [1]: 0.4693 and 0.4746 | Single marks H33K27me3 [1]: 0.1187 and 0.09838 | Single marks H33K36me1 [1]: 0.2345 and 0.1564 | Single marks H33K36me2 [1]: 0.4525 and 0.5384 | Single marks H33K36me3 [1]: 0.03679 and 0.06963 | Relative abundance, H1_1_35 H11.SETAPVAQAASTATEKPAAAKKTKKPAKAAAPR [2]: 0.0% | Relative abundance, H1_1_35 H13.SETAPAAPAAPAPVEKTPVKKKAKKTGAAAGKR [2]: 0.0% | Relative abundance, H1_1_35 H15.SETAPAETAAPAPVEKSPAKKKTTKKAGAAKR [2]: 0.0% | Relative abundance, H1_54_81 H1v234.SGVSLAALKKALAAAGYDVEKNNSR [2]: 100.0% and 65.9% | Relative abundance, H1_54_81 H11.SGVSLAALKKSLAAAGYDVEKNNSR [2]: 0.0% | Relative abundance, H1_54_81 H15.GGVSLPALKKALAAGGYDVEKNNSR [2]: 0.0% | relative abundance of other key histone methylation and acetylation sites (HEK293T cells expressing asKDM4A, 100 μM 6A, LC-MS/MS): remained unaffected | relative abundance of H3K9me3 [3]: recovered to the level of the control vector | relative abundance of H3K36me3 [3]: recovered to the level of the control vector | Relative abundance AKAKSR(H2A3_12_17) (peptide total) [4]: 100.0% | Relative abundance AKAKTR(H2A1_12_17) (peptide total) [4]: 100.0% | Relative abundance DNKKTR(H2A1_72_77) (peptide total) [4]: 100.0% | Relative abundance H2A1_12_17 K13ac [4]: 0.0152% and 0.527% | Relative abundance H2A1_12_17 K13acK15ac [4]: 0.0603% and 0.3% | Relative abundance H2A1_12_17 K13me1 [4]: 1.8% and 5.0% | Relative abundance H2A1_12_17 K15ac [4]: 15.2% and 32.5% | Relative abundance H2A1_12_17 K15me1 [4]: 4.8% and 11.0% | Relative abundance H2A1_12_17 unmod [4]: 78.1% and 50.7% | Relative abundance H2A1_72_77 K74ac [4]: 0.0186% and 0.272% | Relative abundance H2A1_72_77 unmod [4]: 100.0% and 99.7% | Relative abundance H2A3_12_17 K13ac [4]: 0.023% and 0.0778% | Relative abundance H2A3_12_17 K13acK15ac [4]: 0.0187% and 0.4% | Relative abundance H2A3_12_17 K13me1 [4]: 11.1% and 15.7% | Relative abundance H2A3_12_17 K15ac [4]: 0.0415% and 0.131% | Relative abundance H2A3_12_17 K15me1 [4]: 72.5% and 57.2% | Relative abundance H2A3_12_17 unmod [4]: 16.3% and 26.5% | Relative abundance H2AZ_1_19 K4acK7acK11ac [4]: 0.0% | Relative abundance H2AZ_1_19 K4acK7acK11acK15ac [4]: 1.0% and 0.641% | Relative abundance H2A_1_88 H2A14s.HLQLAIR [4]: 85.1% and 95.1% | Relative abundance H2A_1_88 H2AX.GKTGGKAR [4]: 1.9% and 1.0% | Relative abundance H2A_1_88 H2AZ.AGGKAGKDSGKAKTKAVSR [4]: 13.0% and 3.9%
